The target of one assay is Carbonic anhydrase 1 (Homo sapiens, UniProt P00915). Description: Inhibition of human carbonic anhydrase-1 incubated for 15 mins prior to testing by stopped flow CO2 hydrase assay.
The target in assay [1] is Carbonic anhydrase 2 (Homo sapiens, UniProt P00918). The assay can be described thus: Inhibition of human carbonic anhydrase-2 incubated for 15 mins prior to testing by stopped flow CO2 hydrase assay.
Another assay has as its target T1, Carbonic anhydrase (Candida glabrata CBS 138, UniProt Q6FTL6).
T1 sequence (Q6FTL6 whole entry): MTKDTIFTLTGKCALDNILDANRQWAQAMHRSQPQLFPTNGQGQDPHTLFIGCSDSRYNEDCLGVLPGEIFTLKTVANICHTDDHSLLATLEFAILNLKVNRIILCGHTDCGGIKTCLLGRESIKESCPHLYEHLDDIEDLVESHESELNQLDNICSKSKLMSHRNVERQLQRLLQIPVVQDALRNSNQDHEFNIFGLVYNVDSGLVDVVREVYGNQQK
The assay can be described thus: Inhibition of Candida glabrata Nce103 incubated for 15 mins prior to testing by stopped flow CO2 hydrase assay. The arrangement: species or system Nakaseomyces glabratus.

The nature of assay [2]: Inhibition of Malassezia globosa beta-carbonic anhydrase incubated for 15 mins prior to testing by stopped flow CO2 hydrase assay.
For assay [3], the target named is T2, Carbonic anhydrase 2 (Cryptococcus neoformans, UniProt Q3I4V7).
T2 sequence (Q3I4V7 whole entry): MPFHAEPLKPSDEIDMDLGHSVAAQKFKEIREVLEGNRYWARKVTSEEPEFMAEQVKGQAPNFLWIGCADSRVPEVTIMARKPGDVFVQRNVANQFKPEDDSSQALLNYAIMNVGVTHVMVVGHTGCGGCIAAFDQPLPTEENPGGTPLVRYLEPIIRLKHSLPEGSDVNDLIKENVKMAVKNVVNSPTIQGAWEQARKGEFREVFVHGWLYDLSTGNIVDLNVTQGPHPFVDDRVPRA
Description: Inhibition of Cryptococcus neoformans Can2 incubated for 15 mins prior to testing by stopped flow CO2 hydrase assay.

Carbonic anhydrase 1, sequence (P00915 whole entry): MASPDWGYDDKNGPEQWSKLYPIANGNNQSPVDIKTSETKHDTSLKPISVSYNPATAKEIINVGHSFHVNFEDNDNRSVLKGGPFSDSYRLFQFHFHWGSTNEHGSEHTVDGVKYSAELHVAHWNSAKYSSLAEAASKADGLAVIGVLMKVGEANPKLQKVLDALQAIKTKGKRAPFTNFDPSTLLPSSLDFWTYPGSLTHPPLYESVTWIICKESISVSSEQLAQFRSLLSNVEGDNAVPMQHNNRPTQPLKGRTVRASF

`O=[N+]([O-])c1ccc(NC(=S)Nc2ccc3c(c2)B(O)OC3)cc1`: the Ki at Carbonic anhydrase 1 is 385 nM; on Carbonic anhydrase 2 [1] it was over 10000 nM; at Carbonic anhydrase, 96 nM; in assay [2] it was 8680 nM; at Carbonic anhydrase 2 [3], 79 nM.
The like results for `O=C(NCc1ccccc1)Nc1ccc2c(c1)B(O)OC2` were, in that order, 557 nM, 439 nM, 201 nM, 58200 nM and 602 nM.
The like results for `O=C(Nc1ccc(C(F)(F)F)cc1)Nc1ccc2c(c1)B(O)OC2` were, in that order, 487 nM, 456 nM, 96 nM, 73600 nM and 84 nM.
The like results for `O=C(Nc1ccccc1)Nc1ccc2c(c1)B(O)OC2` were, in that order, 654 nM, 730 nM, 86 nM, 63700 nM and 81 nM.
For `COc1ccc(NC(=S)Nc2ccc3c(c2)B(O)OC3)cc1`, the Ki on Carbonic anhydrase came to 86 nM; in assay [2], 28800 nM; on Carbonic anhydrase 2 [3] it was 89 nM.
Consider `OB1OCc2ccc(NC(=S)Nc3ccc(C(F)(F)F)cc3)cc21`, for which the Ki on Carbonic anhydrase 1 was 417 nM; on Carbonic anhydrase 2 [1] it was 1840 nM; at Carbonic anhydrase it was 112 nM; in assay [2], 49800 nM; at Carbonic anhydrase 2 [3], 275 nM.
`OB1OCc2ccc(NC(=S)NCc3ccco3)cc21`: the Ki on Carbonic anhydrase was 229 nM; in assay [2] it was 6100 nM; at Carbonic anhydrase 2 [3] it was 236 nM.
With `OB1OCc2ccc(NC(=S)NCCc3ccccc3)cc21`, the values for the Ki (at Carbonic anhydrase; in assay [2]; on Carbonic anhydrase 2 [3]) were 467 nM, 22500 nM and 676 nM, respectively.
The like results for `O=C(NCc1ccco1)Nc1ccc2c(c1)B(O)OC2` were, in that order, 96 nM, 55600 nM and 283 nM.
Turning to `Nc1ccc2c(c1)B(O)OC2`, the Ki at Carbonic anhydrase 1 worked out at 9430 nM; on Carbonic anhydrase 2 [1] it was 590 nM; at Carbonic anhydrase, 244 nM; in assay [2] it was 44600 nM; at Carbonic anhydrase 2 [3], 93 nM.
In the case of `Cc1cc(Cl)cc(CNC(=O)Nc2ccc3c(c2)B(O)OC3)c1`, the Ki worked out at 79 nM on Carbonic anhydrase, 86800 nM in assay [2] and 400 nM on Carbonic anhydrase 2 [3].
The like results for `CC(=O)c1ccc(NC(=O)Nc2ccc3c(c2)B(O)OC3)cc1` were, in that order, 203 nM, 62200 nM and 65 nM.
The like results for `O=C(Nc1ccc2c(c1)B(O)OC2)Nc1c(Cl)cc(Cl)cc1Cl` were, in that order, 81 nM, 98600 nM and 73 nM.
Take `OB1OCc2ccc(NC(=S)Nc3ccc(F)cc3)cc21`: the Ki was determined as 355 nM at Carbonic anhydrase 1; 1500 nM on Carbonic anhydrase 2 [1]; 86 nM on Carbonic anhydrase; 30100 nM in assay [2]; 86 nM at Carbonic anhydrase 2 [3].
In the case of `O=C(Nc1ccc(Cl)cc1)Nc1ccc2c(c1)B(O)OC2`, the values for the Ki (at Carbonic anhydrase; in assay [2]; on Carbonic anhydrase 2 [3]) were 81 nM, 77900 nM and 92 nM, respectively.
The like results for `Cc1ccc(NC(=S)Nc2ccc3c(c2)B(O)OC3)cc1` were, in that order, 89 nM, 24900 nM and 181 nM.
Turning to `OB1OCc2ccc(NC(=S)Nc3ccc4ccccc4c3)cc21`, the Ki at Carbonic anhydrase was found to be 339 nM; in assay [2], 30600 nM; at Carbonic anhydrase 2 [3] it was 573 nM.
Turning to `O=[N+]([O-])c1ccc2c(c1)B(O)OC2`, the Ki at Carbonic anhydrase 1 is 6350 nM; at Carbonic anhydrase 2 [1] it was 504 nM; at Carbonic anhydrase it was 89 nM; in assay [2] it was 91300 nM; on Carbonic anhydrase 2 [3] it was 88 nM.
The like results for `OB1OCc2ccc(NC(=S)Nc3ccccc3)cc21` were, in that order, 532 nM, 1620 nM, 97 nM, 21300 nM and 198 nM.
The like results for `O=C(Nc1ccc(F)cc1)Nc1ccc2c(c1)B(O)OC2` were, in that order, 235 nM, 480 nM, 75 nM, 76200 nM and 78 nM.
`CC(=O)Nc1nnc(S(N)(=O)=O)s1` [ACETAZOLAMIDE]: the Ki in assay [2] was determined as […].
In the case of `OB1OCc2ccccc21` [BENZOXABOROLE], the results for the Ki (on Carbonic anhydrase; in assay [2]; at Carbonic anhydrase 2 [3]) were 260 nM, 109000 nM and 174 nM, respectively.
For `OB1OCc2cc(F)ccc21` [TAVABOROLE], the Ki at Carbonic anhydrase 1 was found to be 2020 nM; at Carbonic anhydrase 2 [1] it was 462 nM; at Carbonic anhydrase it was 72 nM; in assay [2], 99000 nM; at Carbonic anhydrase 2 [3] it was 89 nM.

The Ki is a dissociation constant, usually derived from enzyme kinetics or from competition with a known ligand. High values mean a looser hold on the target, low ones a stronger hold on the target.

For the origin of these results see ChEMBL document CHEMBL4130568, “Benzoxaboroles as Efficient Inhibitors of the β-Carbonic Anhydrases from Pathogenic Fungi: Activity and Modeling Study” (ACS Med Chem Lett, 2017).
